Legend:
[1] = tested on: DA neurons; assay: [3H] DA uptake, LPS-induced neurotoxicity in rat mesencephalic neuron-glia cultures; format: cell-based
Procedure: Rat and mouse ventral mesencephalic neuron-glia cultures were prepared using a described protocol (Gao H M, Hong J S, Zhang W Q, Liu B (2002) Distinct Role for Microglia in Rotenone-Induced Degeneration of Dopaminergic Neurons. J Neurosci 22(3):782-790). Briefly, midbrain tissues were dissected from day 14 Fisher 344 rat embryos or day 14 mouse embryos (PHOX^+/+ or PHOX^−/−). Cells were dissociated via gentle mechanical trituration in minimum essential medium (MEM) and immediately seeded (5×10^5/well) in poly D-lysine (20 μg/mL) precoated 24-well plates. Cells were seeded in maintenance media and treated with the treatment media described previously (Gao H M, Hong J S, Zhang W Q, Liu B (2002) Distinct Role for Microglia in Rotenone-Induced Degeneration of Dopaminergic Neurons. J Neurosci 22(3):782-790). Three days after seeding, the cells were replenished with 500 μL of fresh maintenance media. Cultures were exposed 7 days after seeding. At the time of treatment, the composition of the cultures was approximately 48% astrocytes, 11% microglia, 40% neurons, and 1 to 1.5% TH-immunoreactive (ir) neurons.
Cells were incubated in Krebs-Ringer buffer (16 mM NaH2PO4, 1.2 mM MgSO4, 1.3 mM EDTA, […], for 21 min at 37° C. with 1 μM [^3H] DA. Nonspecific uptake was blocked for DA with 10 μM mazindole. After incubation, cells were washed three times with 1 mL/well of ice-cold Krebs-Ringer buffer. Cells were then lysed with 0.5 mL/well of 1 N NaOH and mixed with 15 mL of scintillation fluid. Radioactivity was measured on a scintillation counter, where specific [^3H] DA uptake was calculated by subtracting the mazindole.
Rat mesencephalic neuron-glia cultures were pretreated for 30 min with vehicle or 1, 3, 10 μM MMT before adding LPS (2.5 to 5 ng/ml) to the cultures. One week later, the neurotoxic effect of LPS on DA neurons were assessed by both [H^3] DA uptake, which measures the functional capacity of high affinity uptake of DA cells and cell count of tyrosine hydroxylase-positive (TH-ir) cells. [H^3] […]

[2] = target: T1, gp 91 (Homo sapiens, UniProt P04839); assay: Competition of [3H]-labeled naloxine binding; conditions: preliminary data
T1 sequence (P04839 1-570): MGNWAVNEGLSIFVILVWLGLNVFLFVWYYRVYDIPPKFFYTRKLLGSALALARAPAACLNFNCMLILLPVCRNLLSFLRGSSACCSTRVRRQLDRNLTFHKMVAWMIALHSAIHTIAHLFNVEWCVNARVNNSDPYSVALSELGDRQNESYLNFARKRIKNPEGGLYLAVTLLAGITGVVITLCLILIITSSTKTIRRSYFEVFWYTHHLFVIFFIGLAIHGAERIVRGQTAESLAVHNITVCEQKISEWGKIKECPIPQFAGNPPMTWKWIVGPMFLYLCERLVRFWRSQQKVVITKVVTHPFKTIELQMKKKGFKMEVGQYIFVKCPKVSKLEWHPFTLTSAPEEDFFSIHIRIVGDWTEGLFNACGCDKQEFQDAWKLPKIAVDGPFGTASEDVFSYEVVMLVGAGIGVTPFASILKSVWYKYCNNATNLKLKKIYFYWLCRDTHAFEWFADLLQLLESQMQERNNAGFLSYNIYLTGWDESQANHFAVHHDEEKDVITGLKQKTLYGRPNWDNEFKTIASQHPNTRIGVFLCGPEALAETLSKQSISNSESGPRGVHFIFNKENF
T1 sequence (P13498 1-195 partner): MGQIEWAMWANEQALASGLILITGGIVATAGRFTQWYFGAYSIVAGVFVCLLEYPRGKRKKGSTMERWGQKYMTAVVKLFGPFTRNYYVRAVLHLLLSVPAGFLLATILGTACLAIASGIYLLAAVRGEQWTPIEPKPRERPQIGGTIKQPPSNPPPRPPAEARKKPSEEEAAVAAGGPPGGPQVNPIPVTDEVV
From the text: Results from two sets of experiments support this conclusion. […] Thus, the failure for MMT to protect LPS-induced DA neurons toxicity in NADPH oxidase-deficient neuron/glia cultures implies a critical role of this enzyme in mediating the neuroprotective effect of MMT. The present invention determines the binding site of MMT in microglia.

CC12CC3CC(C)(C1)CC(N)(C3)C2.Cl [MMT, 1-amino-3,5-dimethyladamantane hydrochloride]
time of MMT addition after LPS still giving significant neuroprotection (DA uptake) ([1]; MMT 10 μM, LPS 2.5 ng/ml, post-treatment): up to 120 min
effect on LPS-induced decrease in DA uptake ([1]; neuron-enriched cultures): not in neuron-enriched cultures
effect on LPS-induced decrease in DA uptake ([1]; pretreated 30 min with 1, 3, 10 μM MMT, neuron-glia cultures, dose-dependent): significantly attenuated the LPS-induced decrease in DA uptake
competing the binding of [3H]-labeled naloxine [2]: effective in competing the binding
